Test results as given in ChEMBL document CHEMBL1149282, “A systematic approach to the optimization of substrate-based inhibitors of the hepatitis C virus NS3 protease: discovery of potent and specific tripeptide inhibitors” (J Med Chem, 2004).
Square brackets hold non-standard residues; d marks the D form. Peptide text beside a SMILES is read from it. * marks the point of attachment. Hyp(2-Ph-quinolin-4-yl) = O=C(O)[C@@H]1C[C@@H](Oc2cc(-c3ccccc3)nc3ccccc23)CN1; Hyp(quinolin-4-yl) = O=C(O)[C@@H]1C[C@@H](Oc2ccnc3ccccc23)CN1; Ac3c(1R,2S-2-vinyl) = C=C[C@@H]1C[C@]1(N)C(=O)O; Hyp = O=C(O)[C@@H]1C[C@@H](O)CN1; Chg = N[C@H](C(=O)O)C1CCCCC1; X1 = c1ccc2cc(C*)ccc2c1

Tests used:
[1] = Inhibition of HCV NS3 protease; parameters: species or system Hepacivirus hominis
Neutrophil elastase = target: T1, Neutrophil elastase (Homo sapiens, UniProt P08246); test: Inhibition of human leucocyte elastase
T1 sequence (P08246 whole entry): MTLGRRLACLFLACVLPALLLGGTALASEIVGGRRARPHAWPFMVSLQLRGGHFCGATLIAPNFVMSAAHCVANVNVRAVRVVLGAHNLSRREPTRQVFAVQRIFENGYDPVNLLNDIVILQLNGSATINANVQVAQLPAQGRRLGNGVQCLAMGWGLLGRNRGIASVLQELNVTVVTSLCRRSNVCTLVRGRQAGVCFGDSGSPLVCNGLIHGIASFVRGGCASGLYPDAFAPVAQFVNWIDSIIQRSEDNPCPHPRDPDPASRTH

Hepatitis C virus = test: Antiviral activity in Huh7 cells containing sub-genomic HCV subtype 1b replicon by RT-PCR; type: functional, organism-based, Hepacivirus hominis; conditions: genotype 1b, Huh-7
Cathepsin B = Cathepsin B (Homo sapiens, UniProt P07858); test: Inhibition of human cathepsin B

Question: For `C=C[C@@H]1C[C@]1(NC(=O)[C@@H]1C[C@@H](Oc2cc(-c3ccccc3)nc3cc(OC)ccc23)CN1C(=O)[C@@H](NC(=O)[C@@H](NC(C)=O)C1CCCCC1)C(C)C)C(=O)O`, which IC50 [1] is on record?
Answer: Its IC50 is 2 nM.

Question: Which results are given for `C=C[C@@H]1C[C@]1(NC(=O)[C@@H]1C[C@@H](Oc2cc(-c3ccccc3)nc3cc(OC)ccc23)CN1C(=O)[C@@H](NC(=O)OC(C)(C)C)C(C)(C)C)C(=O)O`?
Answer: IC50 (Neutrophil elastase): > 75000 nM; EC50 (Hepatitis C virus): 660 nM; IC50 [1]: 29 nM

Question: For `C=C[C@@H]1C[C@]1(NC(=O)[C@@H]1C[C@@H](Oc2cc(-c3ccccc3)nc3cc(OC(F)(F)F)ccc23)CN1C(=O)[C@@H](NC(=O)OC(C)(C)C)C(C)(C)C)C(=O)O`, which IC50 [1] is on record?
Answer: Its IC50 is 790 nM.

Question: Which IC50 [1] does the source give for `C=C[C@@H]1C[C@]1(NC(=O)[C@@H]1C[C@@H](Oc2cc(-c3ccccc3)nc3ccccc23)CN1C(=O)[C@@H](NC(=O)OC(C)(C)C)C(C)(C)C)C(=O)O` here?
Answer: Its IC50 is 150 nM.

Question: With `C=C[C@@H]1C[C@]1(NC(=O)[C@@H]1C[C@@H](Oc2cc(-c3ccccc3)nc3cc(SC)ccc23)CN1C(=O)[C@@H](NC(=O)OC(C)(C)C)C(C)(C)C)C(=O)O` as the compound, how does the IC50 [1] read?
Answer: The IC50 was 139 nM.

Question: With `C=C[C@@H]1C[C@]1(NC(=O)[C@@H]1C[C@@H](Oc2cc(-c3ccccc3)nc3cc(Br)ccc23)CN1C(=O)[C@@H](NC(=O)OC(C)(C)C)C(C)(C)C)C(=O)O` as the compound, how does the IC50 [1] read?
Answer: Its IC50 is 350 nM.

Question: For `C=C[C@@H]1C[C@]1(NC(=O)[C@@H]1C[C@@H](Oc2cc(-c3ccccc3)nc3cc(C(F)(F)F)ccc23)CN1C(=O)[C@@H](NC(=O)OC(C)(C)C)C(C)(C)C)C(=O)O`, which IC50 [1] is on record?
Answer: The IC50 was 828 nM.

Question: For `C=C[C@@H]1C[C@]1(NC(=O)[C@@H]1C[C@@H](Oc2cc(-c3ccccc3)nc3cc(OC)ccc23)CN1C(=O)[C@@H](NC(=O)OC1CCCC1)C(C)(C)C)C(=O)O`, which IC50 [1] is on record?
Answer: The IC50 was 14 nM.

Question: With `C=C[C@@H]1C[C@]1(NC(=O)[C@@H]1C[C@@H](Oc2cc(-c3ccccc3)nc3c(OC)c(OC)ccc23)CN1C(=O)[C@@H](NC(=O)[C@@H](NC(C)=O)C1CCCCC1)C(C)C)C(=O)O` as the compound, how does the IC50 [1] read?
Answer: Its IC50 is 13 nM.

Question: Which IC50 [1] does the source give for `C=C[C@@H]1C[C@]1(NC(=O)[C@@H]1C[C@@H](Oc2cc(-c3ccccc3)nc3cc(OC)ccc23)CN1C(=O)[C@@H](NC(=O)[C@@H](NC(C)=O)C1CCCCC1)C(C)(C)C)C(=O)O` here?
Answer: Its IC50 is 1 nM.

Question: Which IC50 [1] does the source give for `C=C[C@@H]1C[C@]1(NC(=O)[C@@H]1C[C@@H](Oc2cc(-c3ccccc3)nc3cc(OC)ccc23)CN1C(=O)[C@@H](NC(=O)[C@@H](C)C1CCCCC1)C(C)(C)C)C(=O)O` here?
Answer: Its IC50 is 37 nM.

Question: For `C=C[C@@H]1C[C@]1(NC(=O)[C@@H]1C[C@@H](Oc2cc(-c3ccccc3)nc3cc(OC)ccc23)CN1C(=O)[C@@H](NC(=O)NC1CCCCC1)C(C)(C)C)C(=O)O`, which EC50 (Hepatitis C virus) is on record?
Answer: The EC50 was 2900 nM.

Question: What about the IC50 [1] of the same compound?
Answer: Its IC50 is 9 nM.

Question: For `C=C[C@@H]1C[C@]1(NC(=O)[C@@H]1C[C@@H](Oc2cc(-c3ccccc3)nc3cccc(OC)c23)CN1C(=O)[C@@H](NC(=O)[C@@H](NC(C)=O)C1CCCCC1)C(C)C)C(=O)O`, which IC50 [1] is on record?
Answer: The IC50 was 557 nM.

Question: With `C=C[C@@H]1C[C@]1(NC(=O)[C@@H]1C[C@@H](Oc2cc(-c3ccccc3)nc3ccc(OC)cc23)CN1C(=O)[C@@H](NC(=O)[C@@H](NC(C)=O)C1CCCCC1)C(C)C)C(=O)O` as the compound, how does the IC50 [1] read?
Answer: The IC50 was 41 nM.

Question: With `C=C[C@@H]1C[C@]1(NC(=O)[C@@H]1C[C@@H](Oc2cc(-c3ccccc3)nc3cc(OC)ccc23)CN1C(=O)[C@@H](NC(=O)[C@@H](N)C1CCCCC1)C(C)(C)C)C(=O)O` as the compound, how does the IC50 [1] read?
Answer: The IC50 was 18 nM.

Question: For `C=C[C@@H]1C[C@]1(NC(=O)[C@@H]1C[C@@H](Oc2cc(-c3ccccc3)nc3cc(OC(C)C)ccc23)CN1C(=O)[C@@H](NC(=O)OC(C)(C)C)C(C)(C)C)C(=O)O`, which IC50 [1] is on record?
Answer: The IC50 was 228 nM.

Question: Which IC50 [1] does the source give for `C=C[C@@H]1C[C@]1(NC(=O)[C@@H]1C[C@@H](Oc2cc(-c3ccccc3)nc3cc(OC)ccc23)CN1C(=O)[C@@H](NC(=O)CC1CCCCC1)C(C)(C)C)C(=O)O` here?
Answer: Its IC50 is 37 nM.

Question: For `C=C[C@@H]1C[C@]1(NC(=O)[C@@H]1C[C@@H](Oc2cc(-c3ccccc3)nc3cc(OC)ccc23)CN1C(=O)[C@@H](NC(=O)OC1CCC1)C(C)(C)C)C(=O)O`, which EC50 (Hepatitis C virus) is on record?
Answer: Its EC50 is 960 nM.

Question: What about the IC50 [1] of the same compound?
Answer: Its IC50 is 24 nM.

Question: Which EC50 (Hepatitis C virus) does the source give for `C=C[C@@H]1C[C@]1(NC(=O)[C@@H]1C[C@@H](Oc2cc(-c3ccccc3)nc3cc(OC)ccc23)CN1C(=O)[C@@H](NC(=O)NC1CCCC1)C(C)(C)C)C(=O)O` here?
Answer: Its EC50 is 910 nM.

Question: And the IC50 [1]?
Answer: Its IC50 is 5 nM.

Question: What does the source list for `C=C[C@@H]1C[C@]1(NC(=O)[C@@H]1C[C@@H](Oc2cc(-c3ccccc3)nc3cc(OC)ccc23)CN1C(=O)[C@@H](NC(=O)NC(C)(C)C)C(C)(C)C)C(=O)O`?
Answer: EC50 (Hepatitis C virus): 1220 nM; IC50 [1]: 8 nM

Question: With `C=C[C@@H]1C[C@]1(NC(=O)[C@@H]1C[C@@H](Oc2cc(-c3ccccc3)nc3cc(NC(C)=O)ccc23)CN1C(=O)[C@@H](NC(=O)OC(C)(C)C)C(C)(C)C)C(=O)O` as the compound, how does the IC50 [1] read?
Answer: The IC50 was 29 nM.

Question: With `C=C[C@@H]1C[C@]1(NC(=O)[C@@H]1C[C@@H](Oc2cc(-c3ccccc3)nc3cc(F)ccc23)CN1C(=O)[C@@H](NC(=O)OC(C)(C)C)C(C)(C)C)C(=O)O` as the compound, how does the IC50 [1] read?
Answer: The IC50 was 282 nM.

Question: With `C=C[C@@H]1C[C@]1(NC(=O)[C@@H]1C[C@@H](Oc2cc(-c3ccccc3)nc3cc(C(=O)O)ccc23)CN1C(=O)[C@@H](NC(=O)OC(C)(C)C)C(C)(C)C)C(=O)O` as the compound, how does the IC50 [1] read?
Answer: Its IC50 is > 1000 nM.

Question: Which EC50 (Hepatitis C virus) does the source give for `C=C[C@@H]1C[C@]1(NC(=O)[C@@H]1C[C@@H](Oc2cc(-c3ccccc3)nc3cc(OC)ccc23)CN1C(=O)[C@@H](NC(=O)OC1CCCCC1)C(C)(C)C)C(=O)O` here?
Answer: Its EC50 is 460 nM.

Question: What about the IC50 [1] of the same compound?
Answer: The IC50 was 30 nM.

Question: Which IC50 [1] does the source give for `C=C[C@@H]1C[C@]1(NC(=O)[C@@H]1C[C@@H](Oc2cc(-c3ccccc3)nc3cc(OC)ccc23)CN1C(=O)[C@@H](OC(=O)NC1CCCC1)C(C)(C)C)C(=O)O` here?
Answer: Its IC50 is 148 nM.

Question: For `C=C[C@@H]1C[C@]1(NC(=O)[C@@H]1C[C@@H](Oc2cc(-c3ccccc3)nc3cc(OC)ccc23)CN1C(=O)[C@@H](NC(=O)N(C)C(C)(C)C)C(C)(C)C)C(=O)O`, which IC50 [1] is on record?
Answer: Its IC50 is 205 nM.

Question: Which IC50 [1] does the source give for `C=C[C@@H]1C[C@]1(NC(=O)[C@@H]1C[C@@H](Oc2cc(-c3ccccc3)nc3c(OC)cccc23)CN1C(=O)[C@@H](NC(=O)[C@@H](NC(C)=O)C1CCCCC1)C(C)C)C(=O)O` here?
Answer: The IC50 was 5 nM.

Question: With `C=C[C@@H]1C[C@]1(NC(=O)[C@@H]1C[C@@H](Oc2ccnc3cc(OC)ccc23)CN1C(=O)[C@@H](NC(=O)[C@@H](NC(C)=O)C1CCCCC1)C(C)C)C(=O)O` as the compound, how does the IC50 [1] read?
Answer: Its IC50 is 10 nM.

Question: Which IC50 (Neutrophil elastase) does the source give for `C=C[C@@H]1C[C@]1(NC(=O)[C@@H]1C[C@@H](Oc2cc(-c3ccccc3)nc3ccccc23)CN1C(=O)[C@@H](NC(=O)[C@@H](NC(C)=O)C1CCCCC1)C(C)C)C(=O)O` (Ac-[Chg]V[Hyp(2-Ph-quinolin-4-yl)][Ac3c(1R,2S-2-vinyl)]-OH) here?
Answer: The IC50 was > 30000 nM.

Question: What about the IC50 (Cathepsin B) of the same compound?
Answer: Its IC50 is > 30000 nM.

Question: What about the IC50 [1] of the same compound?
Answer: The IC50 was 13 nM.

Question: Which IC50 [1] does the source give for `C=C[C@@H]1C[C@]1(NC(=O)[C@@H]1C[C@@H](Oc2ccnc3ccccc23)CN1C(=O)[C@@H](NC(=O)[C@@H](NC(C)=O)C1CCCCC1)C(C)C)C(=O)O` (Ac-[Chg]V[Hyp(quinolin-4-yl)][Ac3c(1R,2S-2-vinyl)]-OH) here?
Answer: Its IC50 is 170 nM.

Question: With `C=C[C@@H]1C[C@]1(NC(=O)[C@@H]1C[C@@H](OCc2ccc3ccccc3c2)CN1C(=O)[C@@H](NC(=O)[C@@H](NC(C)=O)C1CCCCC1)C(C)C)C(=O)O` (Ac-[Chg]V[Hyp](X1)[Ac3c(1R,2S-2-vinyl)]-OH) as the compound, how does the IC50 [1] read?
Answer: The IC50 was 600 nM.
